Reference: patent US20250120989A1, “BRIDGED TRICYCLIC CARBAMOYLPYRIDONE COMPOUNDS AND USES THEREOF” (priority 2023, published 2025)
Like-named read-outs stand apart in the source and are kept apart here.

Columns and labels:
[1] = system: HIV-1 (IIIB); test: microbe, parasite or virus in culture; assay type: cell-based; conditions: read-out: MT4 EC50
[2] = in vitro; conditions: human; for CC50 at 5 days: uninfected MT-4 cells
[3] = Human immunodeficiency virus 1, MT4, 120 h, HIV-1 (IIIB) replication in MT-4 cells, 5 days, Cell Titer Glo

| SMILES | EC50 [1, 3] [µM] | CC50 at 5 days [2] [µM] | EC50 ([1]; Human immunodeficiency virus 1, IIIB, MT4, 120 h) [µM] | CC50 [2] [µM] |
| --- | --- | --- | --- | --- |
| COC1=NO[C@@]2(CC[C@H](C)N3C[C@H]2n2cc(C(=O)NCc4ccc(F)cc4F)c(=O)c(OCOP(=O)(O)O)c2C3=O)C1 [Compound 1, (((3′S,5S,7′R)-10′-((2,4-difluorobenzyl)carbamoyl)-3-methoxy-3′-methyl-1′,11′-dioxo-1′,4′,5′,11′-tetrahydro-3′H,4H,7′H-spiro[isoxazole-5,6′-[2,7]methanopyrido[1,2-a][1,4]diazonin]-12′-yl)oxy)methyl dihydrogen phosphate] | 0.00177 | 15.4 | – | – |
| CC1=NO[C@@]2(CC[C@H](C)N3C[C@H]2n2cc(C(=O)NCc4ccc(F)cc4F)c(=O)c(OC(=O)C(C)(C)CCN(CC(=O)O)C(=O)OCOP(=O)(O)O)c2C3=O)C1 [Compound 2, N-(4-(((3′S,5S,7′R)-10′-((2,4-difluorobenzyl)carbamoyl)-3,3′-dimethyl-1′,11′-dioxo-1′,4′,5′,11′-tetrahydro-3′H,4H,7′H-spiro[isoxazole-5,6′-[2,7]methanopyrido[1,2-a][1,4]diazonin]-12′-yl)oxy)-3,3-dimethyl-4-oxobutyl)-N-(((phosphonooxy)methoxy)carbonyl)glycine] | 0.00137 | 12.3 | – | – |
| CC1=NO[C@@]2(CC[C@H](C)N3C[C@H]2n2cc(C(=O)NCc4ccc(F)cc4F)c(=O)c(OC(C)OC(=O)OCCOP(=O)(O)O)c2C3=O)C1 (stereo partly drawn) [Compound 5, 1-(((3′S,5S,7′R)-10′-((2,4-difluorobenzyl)carbamoyl)-3,3′-dimethyl-1′,11′-dioxo-1′,4′,5′,11′-tetrahydro-3′H,4H,7′H-spiro[isoxazole-5,6′-[2,7]methanopyrido[1,2-a][1,4]diazonin]-12′-yl)oxy)ethyl (2-(phosphonooxy)ethyl) carbonate] | 0.00196 | 10.6 | – | – |
| CC1=NO[C@@]2(CC[C@H](C)N3C[C@H]2n2cc(C(=O)NCc4ccc(F)cc4F)c(=O)c(OC(=O)OCCOP(=O)(O)O)c2C3=O)C1 [Compound 6, (3′S,5S,7′R)-10′-((2,4-difluorobenzyl)carbamoyl)-3,3′-dimethyl-1′,11′-dioxo-1′,4′,5′,11′-tetrahydro-3′H,4H,7′H-spiro[isoxazole-5,6′-[2,7]methanopyrido[1,2-a][1,4]diazonin]-12′-yl (2-(phosphonooxy)ethyl) carbonate] | – | – | 0.00209 | 15.2 |
| CC1=NO[C@@]2(CC[C@H](C)N3C[C@H]2n2cc(C(=O)NCc4ccc(F)cc4F)c(=O)c(OCOC(=O)O[C@H](C)COP(=O)(O)O)c2C3=O)C1 [Compound 18, (((3′S,5S,7′R)-10′-((2,4-difluorobenzyl)carbamoyl)-3,3′-dimethyl-1′,11′-dioxo-1′,4′,5′,11′-tetrahydro-3′H,4H,7′H-spiro[isoxazole-5,6′-[2,7]methanopyrido[1,2-a][1,4]diazonin]-12′-yl)oxy)methyl ((R)-1-(phosphonooxy)propan-2-yl) carbonate] | 0.00227 | 12.1 | – | – |
| CC1=NO[C@@]2(CC[C@H](C)N3C[C@H]2n2cc(C(=O)NCc4ccc(F)cc4F)c(=O)c(OCOC(=O)CCCCOP(=O)(O)O)c2C3=O)C1 [Compound 20, (((3′S,5S,7′R)-10′-((2,4-difluorobenzyl)carbamoyl)-3,3′-dimethyl-1′,11′-dioxo-1′,4′,5′,11′-tetrahydro-3′H,4H,7′H-spiro[isoxazole-5,6′-[2,7]methanopyrido[1,2-a][1,4]diazonin]-12′-yl)oxy)methyl 5-(phosphonooxy)pentanoate] | 0.00237 | 20.4 | – | – |
| CC1=NO[C@@]2(CC[C@H](C)N3C[C@H]2n2cc(C(=O)NCc4ccc(F)cc4F)c(=O)c(OCOC(=O)O[C@@H](C)C[C@H](C)OP(=O)(O)O)c2C3=O)C1 [Compound 30, (((3′S,5S,7′R)-10′-((2,4-difluorobenzyl)carbamoyl)-3,3′-dimethyl-1′,11′-dioxo-1′,4′,5′,11′-tetrahydro-3′H,4H,7′H-spiro[isoxazole-5,6′-[2,7]methanopyrido[1,2-a][1,4]diazonin]-12′-yl)oxy)methyl ((2S,4S)-4-(phosphonooxy)pentan-2-yl) carbonate] | 0.00272 | 10.3 | – | – |
| CC1=NO[C@@]2(CC[C@H](C)N3C[C@H]2n2cc(C(=O)NCc4ccc(F)cc4F)c(=O)c(OCOC(=O)C4(CCN(CC(=O)O)C(=O)OCOP(=O)(O)O)CC4)c2C3=O)C1 [Compound 44, N-(2-(1-(((((3′S,5S,7′R)-10′-((2,4-difluorobenzyl)carbamoyl)-3,3′-dimethyl-1′,11′-dioxo-1′,4′,5′,11′-tetrahydro-3′H,4H,7′H-spiro[isoxazole-5,6′-[2,7]methanopyrido[1,2-a][1,4]diazonin]-12′-yl)oxy)methoxy)carbonyl)cyclopropyl)ethyl)-N-(((phosphonooxy)methoxy)carbonyl)glycine] | 0.00141 | 11.1 | – | – |
| COC1=NO[C@@]2(CC[C@H](C)N3C[C@H]2n2cc(C(=O)NCc4ccc(F)cc4F)c(=O)c(OCOC(=O)OC[C@@H](C)OP(=O)(O)O)c2C3=O)C1 [Compound 53, (((3′S,5S,7′R)-10′-((2,4-difluorobenzyl)carbamoyl)-3-methoxy-3′-methyl-1′,11′-dioxo-1′,4′,5′,11′-tetrahydro-3′H,4H,7′H-spiro[isoxazole-5,6′-[2,7]methanopyrido[1,2-a][1,4]diazonin]-12′-yl)oxy)methyl ((R)-2-(phosphonooxy)propyl) carbonate] | 0.00196 | 15.2 | – | – |
| CC1=NO[C@@]2(CC[C@H](C)N3C[C@H]2n2cc(C(=O)NCc4ccc(F)cc4F)c(=O)c(OCOC(=O)OC[C@@H](C)COP(=O)(O)O)c2C3=O)C1 [Compound 70, (((3′S,5S,7′R)-10′-((2,4-difluorobenzyl)carbamoyl)-3,3′-dimethyl-1′,11′-dioxo-1′,4′,5′,11′-tetrahydro-3′H,4H,7′H-spiro[isoxazole-5,6′-[2,7]methanopyrido[1,2-a][1,4]diazonin]-12′-yl)oxy)methyl ((R)-2-methyl-3-(phosphonooxy)propyl) carbonate] | 0.00286 | 15.3 | – | – |
| COC1=NO[C@@]2(CC[C@H](C)N3C[C@H]2n2cc(C(=O)NCc4ccc(F)cc4F)c(=O)c(OCOC(=O)OC[C@@H](C)COP(=O)(O)O)c2C3=O)C1 [Compound 71, (((3′S,5S,7′R)-10′-((2,4-difluorobenzyl)carbamoyl)-3-methoxy-3′-methyl-1′,11′-dioxo-1′,4′,5′,11′-tetrahydro-3′H,4H,7′H-spiro[isoxazole-5,6′-[2,7]methanopyrido[1,2-a][1,4]diazonin]-12′-yl)oxy)methyl ((R)-2-methyl-3-(phosphonooxy)propyl) carbonate] | 0.00504 | 21.3 | – | – |
| COC1=NO[C@@]2(CC[C@H](C)N3C[C@H]2n2cc(C(=O)NCc4ccc(F)cc4F)c(=O)c(OCOC(=O)OC[C@@H](OP(=O)(O)O)C(C)C)c2C3=O)C1 [Compound 82, (((3′S,5S,7′R)-10′-((2,4-difluorobenzyl)carbamoyl)-3-methoxy-3′-methyl-1′,11′-dioxo-1′,4′,5′,11′-tetrahydro-3′H,4H,7′H-spiro[isoxazole-5,6′-[2,7]methanopyrido[1,2-a][1,4]diazonin]-12′-yl)oxy)methyl ((S)-3-methyl-2-(phosphonooxy)butyl) carbonate] | – | 39.7 | – | – |
